Laboratory results from patent publication US20160095867A1, “BET INHIBITION THERAPY FOR HEART DISEASE” (DANA-FARBER CANCER INSTITUTE, INC., priority 2013, published 2016).

Assays:
BRD4 = molecular target: T1, BRD4 (Rattus norvegicus, UniProt A0A8I6A216); assay: ChIP-qPCR of BRD4 and Pol II at the IL6 proximal promoter in NRVM; assay type: cell-based; settings: JQ1 500 nM, PE 100 μM, 90 min
T1 construct: endogenous in cells; host or cells: NRVM (primary neonatal rat ventricular cardiomyocytes)
Method: NRVM were plated in 15 cm dishes at 5×10^6 cells/dish. Chromatin pooled from approximately 15×10^6 NRVM were used for each immunoprecipitation. After indicated treatments, NRVM were fixed directly on the dish with 1% formaldehyde for 10 minutes followed by quenching with 0.125M glycine for 5 minutes. Chromatin was extracted, followed by shearing on a BioRuptor (Diagenode; total 16 cycles, hi-power, 30 sec on/off). The sonicated chromatin was immunoprecipitated with 5 μg of antibody bound to Dynabeads (Invitrogen) followed by extensive washing and elution. Immunoprecipitate and input chromatin samples were then reverse cross-linked followed by purification of genomic DNA. Target and non-target regions of genomic DNA were amplified by qRT-PCR in both the immunoprecipitates and input samples using Sybrgreen chemistry. Enrichment data were analyzed by calculating the immunoprecipitated DNA percentage of input DNA for each sample as previously described (Ott et al., 2012). Antibodies used in ChIP were BRD4 (Bethyl #A301-985A) and RNA Polymerase II (Santa Cruz N-20, sc-899).

[1] = Conscious tail-vein systolic blood pressure in mice; assay type: in vivo, mouse; settings: JQ1 50 mg/kg/day IP, 17 days
Description: For transthoracic echocardiography, mice were anesthetized with 1% inhalational isofluorane and imaged using the Vevo 770 High Resolution Imaging System (Visual Sonics, Inc.) and the RMV-707B 30 MHz probe. Measurements were obtained from M-mode sampling and integrated EKV images taken in the LV short axis at the mid-papillary level (Haldar et al., 2010). Measurements of pressure gradients across the constricted portion of the aorta were obtained by high frequency Doppler as previously described (Liu et al., 2012). Conscious tail-vein systolic blood pressure was measured using the BP2000 Blood Pressure Analysis System (Visitech Systems, Inc.) as recommended by the manufacturer. To allow mice to adapt to the apparatus, we performed daily blood pressure measurements for one week prior to beginning experiments. Treadmill endurance exercise testing was performed on a motorized mouse treadmill (Columbus Instruments) as previously described (Haldar et al., 2012).

mice with PE infusion = assay: Chronic phenylephrine (PE) infusion model of cardiac hypertrophy; assay type: in vivo, mouse; settings: PE 75 mg/kg/day minipump, JQ1 from 1.5 days after installation
Description: All mice were C57Bl/6J littermate males aged 10-12 weeks. For TAC, mice were anesthetized with ketamine/xylazine, mechanically ventilated (Harvard apparatus), and subject to thoracotomy. The aortic arch was constricted between the left and right carotid arteries using a 7.0 silk suture and a 27-gauge needle as previously described (Hu et al., 2003). In our hands, this protocol a consistent peak pressure gradient of approximately 50 mmHg across the constricted portion of the aorta. For PE infusion, mice were anesthetized using continuous 1% inhalational isofluorane. Mini-osmotic pumps (Alzet 2004, Durect Corp.) were filled with phenylephrine hydrochloride (PE, Sigma) or vehicle (normal saline) and implanted subcutaneously on the dorsal aspect of the mouse. PE was infused at a dose of 75 mg/kg/day for 17 days. Injections of JQ1 or vehicle were begun 1.5 days postoperatively.
For transthoracic echocardiography, mice were anesthetized with 1% inhalational isofluorane and imaged using the Vevo 770 High Resolution Imaging System (Visual Sonics, Inc.) and the RMV-707B 30 MHz probe. Measurements were obtained from M-mode sampling and integrated EKV images taken in the LV short axis at the mid-papillary level (Haldar et al., 2010). […] Conscious tail-vein systolic blood pressure was measured using the BP2000 Blood Pressure Analysis System (Visitech Systems, Inc.) as recommended by the manufacturer. […]

[2] = tested on: mice with myocardial infarction (MI); assay: Large anterior wall myocardial infarction (permanent proximal LAD ligation) model; assay type: in vivo, mouse; settings: 25 or 50 mg/kg/day IP from postoperative day 5
Method: Mice were subjected to permanent proximal LAD ligation to create a large anterior wall myocardial infarction (MI). JQ1 or vehicle was begun at the indicated doses (25 mg/kg/day or 50 mg/kg/day, intraperitoneal injection) on postoperative day 5. […] JQ1 attenuates the development of (FIGS. 12B and 15B) LV systolic dysfunction, (FIGS. 12C and 15C) LV cavity dilation, (FIGS. 12D and 15D) LV wall thickening, and (FIGS. 12E and 15E) cardiomegaly after a large anterior wall myocardial infarction. (FIG. 12—N=5 per group; FIG. 15—N=5 in sham group, N=10 in MI group). […] After a myocardial infarction, abnormal remodeling of the heart occurs in distant areas of non-infarcted myocardium, leading to cardiac dilation, enlargement, and contractile dysfunction. This is a very common cause of heart failure. […] Neither this model nor the TAC models involve atherosclerosis. Therefore, the ability to protect the heart in these settings are unrelated to any effects on atherosclerosis.

[3] = tested on: primary Rat Aortic Smooth Muscle Cells (RASMC); assay: PDGF-bb induced pathologic smooth muscle cell activation; assay type: cell-based; settings: JQ1 500 nM, PDGF-bb 10 ng/mL
Method: All experiments were performed with primary Rat Aortic Smooth Muscle Cells (RASMC), PDGF-bb (10 ng/mL), and JQ1 (500 nM). JQ1 blocks hallmark features of pathologic smooth muscle activation in response to the agonist PDGF-bb such as (FIG. 14A) proliferation (quantified by radiolabeled thymidine incorporation), (FIG. 14B) migration (quantified using a Transwell migration assay), and (FIG. 14C) pathologic gene induction (qRT-PCR shown for Ptgs2/Cox2). These findings support the efficacy of BET bromodomain inhibition against pathologic smooth muscle growth (n=3-6 per group; *p<0.05 vs. vehicle; **p<0.05 vs. PDGF-bb).

Cc1sc2c(c1C)C(c1ccc(Cl)cc1)=N[C@@H](CC(=O)OC(C)(C)C)c1nnc(C)n1-2 [JQ1]
recruitment of endogenous BRD4 and Pol II to the proximal promoter of IL6 in response to PE (BRD4): blocked this recruitment | systemic blood pressure [1]: does not affect | LV systolic function during chronic PE infusion (mice with PE infusion): without any compromise | development of pathologic cardiac hypertrophy during chronic PE infusion (mice with PE infusion): potently suppressed | development of LV cavity dilation after MI [2]: attenuates | development of LV systolic dysfunction after MI [2]: attenuates | development of LV wall thickening after MI [2]: attenuates | development of cardiomegaly after MI [2]: attenuates | mortality, myocardial rupture, LV aneurysm formation vs. vehicle control [2]: No excess mortality, myocardial rupture, and LV aneurysm formation | PDGF-bb induced migration (Transwell migration assay) [3]: blocks | PDGF-bb induced pathologic gene induction (qRT-PCR, Ptgs2/Cox2) [3]: blocks | PDGF-bb induced proliferation (radiolabeled thymidine incorporation) [3]: blocks
